Assay results as given in US10973932B2, “Preclinical model of neonatal necrotizing enterocolitis” (University of South Florida, priority 2017, dated 2021).

B1: recombinant haptoglobin: recombinant haptoglobin, a natural chelator of free hemoglobin (protein, UniProt P00738 19-406, looked up)
Haptoglobin: VDSGNDVTDIADDGCPKPPEIAHGYVEHSVRYQCKNYYKLRTEGDGVYTLNDKKQWINKAVGDKLPECEADDGCPKPPEIAHGYVEHSVRYQCKNYYKLRTEGDGVYTLNNEKQWINKAVGDKLPECEAVCGKPKNPANPVQRILGGHLDAKGSFPWQAKMVSHHNLTTGATLINEQWLLTTAKNLFLNHSENATAKDIAPTLTLYVGKKQLVEIEKVVLHPNYSQVDIGLIKLKQKVSVNERVMPICLPSKDYAEVGRVGYVSGWGRNANFKFTDHLKYVMLPVADQDQCIRHYEGSTVPEKKTPKSPVGVQPILNEHTFCAGMSKYQEDTCYGDAGSAFAVHDLEEDTWYATGILSFDKSCAVAEYGVYVKVTSIQDWVQKTIAEN

Legend:
[1] = tested on: anemic-transfused mice; experiment: RBC transfusion-associated NEC-like injury in anemic-transfused mouse pups; format: in vivo
Description: Experimental design: Animal studies were approved by the Institutional Animal Care and Use Committee. C57BL/6 mice pups were studied in 4 groups: (a) naïve control; (b) transfusion control; (c) anemic control; and (d) anemic-transfused mice. Naïve controls were maintained without intervention. Transfusion controls received an intravenous RBC transfusion (20 mL/kg into the retro-orbital venous plexus, injected in 2 aliquots on each side) on postnatal day 11 (P11). RBCs for transfusion were collected in a sterile fashion from adult FVB/NJ donors after sacrifice into citrate-phosphate-dextrose-adenine-1 (CPDA-1; Sigma, St. Louis, Mo.; 6 parts blood: 1 part CPDA-1). […] Hematocrits and RBC indices were measured at each phlebotomy and then everyday on P11-13; 5 μL blood was diluted 1:20 in Cellpak reagent (Sysmex, Kobe, Japan) and analyzed in the Sysmex XT-2000iV automated veterinary hematology analyzer. […] To measure gut barrier function, FITC-dextran was administered by gavage (10 kDa, 400 mg/kg) 4 hrs before sacrifice and measured the FITC fluorescence signal in plasma samples obtained just prior to sacrifice. To measure regional blood flow, […] fluorescence-labeled microspheres were administered intravenously (15 μm, ThermoFisher, Waltham, Mass.) 1 hr before sacrifice and the fluorescence signal was measured in tissue lysates. […]

[2] = tested on: monocytes and macrophages; experiment: Depletion of intestinal monocytes/macrophages (flow cytometry); format: in vivo, mouse; settings: CSF1R-DTR/mCherry×Lyz2-cre pups; 5 ng/g weight; FIG. 7E
Description: Flow cytometry: Macrophages were defined by flow cytometry (BD LSRII, Franklin Lakes, N.J.). Intestinal tissue was washed with Hanks' balanced-salt solution (HBSS) containing 1 mM DTT (Sigma) to remove mucus, and then treated first with HBSS containing 1 mM EDTA (Sigma)×20 min at 37° C., and then with HBSS containing 1 mM collagenase type IV (Sigma)×2 hrs at 37° C. Cell suspension was stained using established protocols with the L-D viability dye (ThermoFisher), lineage cocktail (BioLegend, San Diego, Calif.), and antibodies against CD11b, Ly6C, F4/80, Ly6G, and Ly6B (BioLegend).
Murine intestinal macrophages: Murine intestinal macrophages were isolated by immunomagnetic separation, where these cells were first stained with phycoerythrin (PE)-conjugated anti-CD11b, anti-F4/80, and anti-Ly6C antibodies and then separated using anti-PE-conjugated ferromagnetic beads (Miltenyi Biotec, San Diego, Calif.). In some experiments, monocytes and macrophages were depleted by administering clodronate liposomes (Clodrosome, Brentwood, Tenn.). A 50 mg/kg intraperitoneal dose was used and an identical dose by enema on postnatal day 8, which depleted >80% monocytes and macrophages in 72 hrs (pre-determined optimum).
These findings were confirmed using a second, more specific approach for macrophage depletion. […]

[3] = tested on: NF-κB; experiment: NF-κB reporter RAW264.7 macrophages stimulated with 7-day-stored RBCs; format: cell-based, murine; settings: haptoglobin 10 μg/mL added with 7-day RBCs; FIG. 5H

Row | Molecule | transfusion-associated NEC-like injury (onset, severity of bowel injury) ([1]; CSF1R-DTR/mCherry×Lyz2-cre anemic-transfused pups, 5 ng/g weight, FIGS. 7E-7G) | inflammatory F4/80mid CD115+Ly6Chi macrophages (not resident macrophages) [2] | transfusion-associated NEC-like injury (onset, severity of bowel injury) ([1]; intravenous 10 μg/g body weight 1 hr before transfusion, FIGS. 5I-5J) | inflammatory effect of 7-day-stored RBC units on macrophages (relative NF-κB activity) [3]
1 | diphtheria toxin | protective | selectively depleted |  | 
2 | B1 |  |  | protective | reversed
